Records with an inconclusive call do not appear. Activity calls are given as the source filed them.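 How the source made its calls: active means compounds lowering the luciferase signal with a fitted half-maximal dose at most twice their top valid dose (cut at about 30 µM in these data); inconclusive means flat fits with moderate signal loss, or poor fits; inactive means the rest.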

The subject of the assay is Clone20 osteoblast Shn3 3'UTR firefly luciferase, 24 h. Briefly: Shn3 3'UTR reporter inhibitors, dose response, cell-based, Clone20 osteoblasts, luminescence, dry powder, set 2 (AID 743417).

The AC50 is the concentration giving half of the maximal activity seen. In the case of `CC(C)(C)Nc1nc(-c2ccccn2)nc2ccccc12`, the AC50 is 1.86 µM. The value for `NC(CCc1ccccc1)c1csc(NC(=O)Nc2ccccc2Oc2ccccc2)n1` (configuration not stated) was 7.18 µM. As to `COc1ccc(OC)c(NC(=O)c2nc(S(=O)(=O)Cc3ccccc3)ncc2Cl)c1`, the AC50 was 2.08 µM. The same measure for `N#C/C(=C(\O)Cc1ccccc1)c1nc2ccccc2[nH]1`: > 70 µM (inactive). The same measure for `COc1ccccc1-c1cc(C(F)(F)F)nc(S(=O)(=O)CCCC(=O)N2CCCCC2C)n1` (configuration not stated): 2.65 µM; for `O=C(c1ccc(S(=O)(=O)c2ccccc2Cl)c([N+](=O)[O-])c1)N1CCN(Cc2ccccc2)CC1`: 5.77 µM; for `Cc1ccc(CNC(=O)c2cc3c(C)nc4ccccc4c3o2)cc1`: 2.49 µM. The value for `CCOC(=O)c1ccc(NC(=O)Cn2ncc(Cl)c(Cl)c2=O)cc1` was 2.32 µM. Turning to `C=CCSc1nc2ccccc2n1C(=O)/C=C/c1cc(OC)c(OC)c(OC)c1`, the AC50 was 1.13 µM. Regarding `Cn1cc(S(=O)(=O)N2CCc3ccccc32)cc1C(=O)NC(C)(C)C`, the AC50 is 1.25 µM. The same measure for `Cc1ccc(OC(=O)CCC(=O)Oc2ccc(C)cc2C)c(C)c1`: 3.51 µM. The same measure for `CCCCNc1c(-c2ccc(OC)c(Sc3ccc(OC)cc3)c2)nc2ccccn12`: 0.821 µM; for `COc1cc(NC(=O)Cn2ncc(Cl)c(Cl)c2=O)c(C)cc1[N+](=O)[O-]`: 3.44 µM; for `NS(=O)(=O)c1ccc(CCNCc2cc(Br)ccc2OCc2ccccc2)cc1`: 2.92 µM. The value for `CCC(=O)OCCNc1cc(Sc2nc3ccccc3[nH]2)c2nonc2c1[N+](=O)[O-]` was 1.09 µM.

In the case of `CCCNC(=O)c1nnsc1S(=O)(=O)c1ccc(Cl)cc1`, the AC50 was 3.63 µM. The same measure for `COc1ccc(C[C@H]2NC[C@H](O)[C@H]2OC(C)=O)cc1`: 0.882 µM. The same measure for `Cc1ccc(OCCN2CCN(c3ncnc4sc(C)c(C)c34)CC2)cc1`: 0.754 µM; for `CCCCC(=O)NC(c1ccccc1OC)c1ccc2cccnc2c1O` (configuration not stated): 1.19 µM; for `COc1ccc(C(NC(=O)C(C)C)c2ccc3cccnc3c2O)cc1` (configuration not stated): 1.35 µM. The value for `Cc1ccc(NC(=O)Cc2nn(C)c(=O)c3ccccc23)cc1F` was 0.73 µM; that for `CCCCN1C2=NCCCN2c2cc(C)c(C)cc21` was 0.803 µM.

Turning to `O=C(CN(C(=O)c1ccccc1Cl)C1CCCCC1)Nc1ccc(Cl)c([N+](=O)[O-])c1`, the AC50 was 5.1 µM. The value for `CCCCNc1c(-c2cccc(-c3ccc(OC)cc3)c2)nc2cc(C)ccn12` was 12 µM; that for `Cc1cc(C)n(-c2nc(Nc3ccccc3C(F)(F)F)nc(-n3nc(C)cc3C)n2)n1` was 5.49 µM.

Consider `CC(C)(C)n1nnnc1C(c1ccc(C(F)(F)F)cc1)N(Cc1ccc(F)cc1)Cc1ccco1` (configuration not stated), for which the AC50 was 10.1 µM. The same measure for `CCOC(=O)c1c2c(n(Cc3ccccc3)c1C)C(=O)C(=O)c1ccccc1-2`: 2.3 µM. The value for `CN(C)c1ncnc2c1C(c1ccccc1)C(C)(C)O2` (configuration not stated) was > 70 µM (inactive); that for `Cc1ccc(S(=O)(=O)NCc2ccncc2)cc1C` was 0.585 µM; that for `CC(C)(C)C(=O)NC(=S)NNC(=O)c1sc2ccccc2c1Cl` was 19.1 µM. The value for `CCCCC(=O)NC(c1ccccc1)c1ccc2cccnc2c1O` (configuration not stated) was 2.35 µM; that for `CCC12CN(S(=O)(=O)c3ccc(C)cc3)CC(CC)(CN(S(=O)(=O)c3ccc(C)cc3)C1)C2=O` was 3.48 µM. For `O=C(Nc1cc2c3c(c1)C1CCCC1CN3CC1CCCC21)c1ccc([N+](=O)[O-])cc1` (configuration not stated), the AC50 is 2.2 µM. The same measure for `Oc1c(CN2CCOCC2)cc(COCc2ccccc2)c2cccnc12`: 1.28 µM; for `Cn1c(SCC(=O)N2CCCc3ccccc32)nc2ccccc2c1=O`: 3.46 µM; for `CCc1ccc(NC(=O)c2nc(S(=O)(=O)Cc3ccccc3)ncc2Cl)cc1`: 0.551 µM.

`O=C(Nc1nc(-c2ccccn2)cs1)c1ccccc1-n1cnnn1`: the AC50 was 1.71 µM. For `C#CCN(C[C@@H]1[C@@H](OC(=O)NCC2CCCCC2)[C@@H](OC(=O)NCC2CCCCC2)Cn2c(=O)ccc(=O)n21)S(=O)(=O)c1ccc(C)cc1`, the AC50 was 2.49 µM.

Take `Cc1cccc(Oc2cc(NC(=O)c3ccccc3)cc([N+](=O)[O-])c2)c1`: the AC50 is 3.09 µM. In the case of `Oc1c(CN2CCN(c3ccccc3)CC2)cc(Br)c2cccnc12`, the AC50 is 1.92 µM. The same measure for `O=C(NNC(=S)Nc1ccc(Cl)c(Cl)c1)c1ccccn1`: 2.33 µM; for `CCn1cc(C(=O)NCc2ccco2)c(=O)c2cc(S(=O)(=O)N3CC(C)CC(C)C3)ccc21` (configuration not stated): 0.778 µM. In the case of `Cn1c(COc2ccc(Br)cc2)nnc1SC1CCc2ccccc2C1=O` (configuration not stated), the AC50 is 35.2 µM. The same measure for `COc1cccc(-n2c(C)nc3c(cnn3-c3ccc(Cl)cc3)c2=O)c1`: 0.391 µM; for `COc1ccccc1/C=C1\CCCC2=C1Nc1nnnn1C2c1ccccc1OC` (configuration not stated): 36 µM. Take `OC(CNCCC1C=Nc2ccccc21)Cn1c2ccc(Cl)cc2c2cc(Cl)ccc21` (configuration not stated): the AC50 is 5.11 µM. The value for `O=C1C=C(N2CCOCC2)c2ccccc2C1=O` was 7.16 µM; that for `CCOC(=O)c1cnc(-n2nc(C)cc2C)nc1NNc1nc(-c2ccccc2)cc(-c2ccccc2)n1` was 3.84 µM. The value for `COc1ccc(-c2nsc3c(N4CCCCC4C)ncnc23)cc1` (configuration not stated) was less than 0.26 µM; that for `Cc1ccc([C@@H]2CC(=O)[C@@H]3CN(S(=O)(=O)c4ccccc4C)[C@H](c4ccc(Cl)cc4)C[C@@H]3N2S(=O)(=O)c2ccc(C)cc2)cc1` was 0.361 µM; that for `COc1ccc(C(=O)NC(=S)NNC(=O)c2ccc3ccccc3n2)cc1` was 4.32 µM. In the case of `Cc1cc(C(=O)NC2CCCc3c2cnn3-c2cccc(C)c2C)n(C)n1` (configuration not stated), the AC50 was less than 0.26 µM.

For `COc1ccccc1N1CCN(c2ncc(C(=O)N3CCN(c4cccc(Cl)c4)CC3)c3ccccc23)CC1`, the AC50 was 0.572 µM. The value for `O=C(OCC12CC3CC(CC(C3)C1)C2)c1ccc(NCc2cc(O)ccc2O)cc1` was 3.25 µM; that for `CCOC(=O)COc1ccc2ccccc2c1/C=C/[N+](=O)[O-]` was 5.2 µM. The value for `CCC1CCCCN1S(=O)(=O)c1ccc(NC(=O)c2ccncc2)cc1` (configuration not stated) was 3.43 µM. The same measure for `CC(C)(C)NCC(=Cc1ccccc1)C(=O)c1ccccc1`: 4.51 µM.

In the case of `CC(Oc1ccc(Cl)cc1Cl)c1nc(-c2ccc(NC(=O)c3ccncc3)cc2)no1` (configuration not stated), the AC50 was 3.93 µM.

As to `COC(=O)C1=C(c2ccc(-c3ccccc3)c(F)c2)C[C@@H]2CC[C@H]1N2C(=O)NCC1CC1`, the half-maximal activity concentration (AC50) was 4.32 µM.

In the case of `CS(=O)(=O)c1ncc(Cl)c(C(=O)Nc2ccc(N3CCOCC3)cc2)n1`, the AC50 is 1.21 µM.

As to `Cc1cc(C(=O)COC(=O)c2ccccc2O)c(C)n1Cc1cccs1`, the AC50 is 8.99 µM. As for `COC(=O)c1cn(NC(=O)c2cc([N+](=O)[O-])ccc2F)c(=O)c2ccccc12`, the AC50 was 2.85 µM.

Turning to `CC(C)Cc1ccc(C(C)C(=O)Nc2ccccc2O)cc1` (configuration not stated), the AC50 was 1.89 µM. The value for `COc1cccc(CN(C)C(=O)c2cccc(S(=O)(=O)N3CCN(Cc4ccccc4)CC3)c2)c1OC` was 4.94 µM; that for `CC1=C(C#N)C(C(F)(F)F)(C(F)(F)F)N=C(c2ccco2)N1` was 7.72 µM. The same measure for `COc1cc(CSc2nnnn2-c2ccc(C)cc2)cc(OC)c1OC`: 1.02 µM; for `Cc1ccc(-c2csc(N3CCC(NS(=O)(=O)c4ccc5c(c4)OCCO5)CC3)n2)cc1`: 2.15 µM; for `CN1CCN(c2ccc(-c3ccc4ccccc4n3)cc2)CC1`: 2.73 µM. Take `S=C(NCCCCN(Cc1ccc(Cl)cc1)c1ccc(Br)cn1)NCCCc1cnc[nH]1`: the AC50 is 7.24 µM. The same measure for `COc1ccccc1C(CCNCc1ccc(N(C)C)cc1)c1ccc(OC(C)C)cc1` (configuration not stated): 6.48 µM. The value for `O=C(Nc1cc(F)ccc1F)N1CCN(c2ccnc3cc(Cl)ccc23)CC1` was 22.8 µM; that for `Cc1cc(Nc2cccc([N+](=O)[O-])c2)n2c(nc3ccccc32)c1C#N` was 1.9 µM.

Regarding `COc1cc(NC(=O)c2cccc3c(-c4cccnc4)coc23)cc(OC)c1OC`, the AC50 is 0.978 µM. Turning to `O=S(=O)(NCc1ccncc1)c1ccc(F)c(F)c1`, the AC50 was 2.09 µM. The same measure for `CN(C)CCNC(=O)c1cccc2nc3cccc(F)c3nc12`: 13.7 µM; for `CCN1CCN(Cc2ccc(NC(=O)c3ccc(C)c(NC(=O)c4cncc(-c5cccs5)c4)c3)cc2C(F)(F)F)CC1`: 0.808 µM; for `C=C1C(=O)O[C@@H]2C[C@@H](C)[C@@H]3C=CC(=O)[C@@]3(C)[C@@H](OC(=O)CC(=O)O[C@H]3[C@@H]4C(=C)C(=O)O[C@@H]4C[C@@H](C)[C@@H]4C=CC(=O)[C@]43C)[C@H]12`: 0.292 µM. The same measure for `c1ccc(CNc2ncnc3ccccc23)cc1`: 1.5 µM; for `CCCc1nc2c(=O)n(C)c(=O)nc-2n(C)n1`: 2.17 µM; for `Cc1ccccc1CS(=O)(=O)c1nnc([C@H](Cc2ccccc2)NC(=O)OC(C)(C)C)o1`: 1.23 µM. The same measure for `O=C(Nc1ccc2oc(-c3ccncc3)nc2c1)c1ccc([N+](=O)[O-])o1`: 18.6 µM.

With `COc1ccc(CNCCc2c(C)[nH]c3ccc(OC(F)(F)F)cc23)c(OC)c1`, the AC50 was 0.963 µM. The value for `CN(c1cccc(Cl)c1)S(=O)(=O)c1cccc(C(=O)NCc2ccncc2)c1` was less than 0.26 µM; that for `O=C(NCc1cccnc1)c1ccc(-c2ccc(F)c(F)c2)c2ccoc12` was 3.48 µM. The value for `O=c1[nH]c2ccccc2n1C1CCN(C(CCc2ccccc2)c2nnnn2Cc2ccccc2)CC1` (configuration not stated) was 1.23 µM; that for `COC(=O)C1=C(c2ccc(F)cc2OCc2ccccc2)C[C@@H]2CC[C@H]1N2C(=O)NC1Cc2ccccc2C1` was 8 µM; that for `CCOC(=O)C1CCCN(S(=O)(=O)c2ccc(S(=O)(=O)N3CCCC3)cc2)C1` (configuration not stated) was 0.821 µM. For `CN(C)c1ccc(/C=C/c2nc3ccccc3s2)cc1`, the AC50 was 0.494 µM. The same measure for `CC(C)=CCc1cc([C@@H]2COc3c(ccc4c3C=CC(C)(C)O4)C2)c(O)cc1O`: 7.54 µM; for `O=S(=O)(c1ccccc1C(F)(F)F)N1CCN(c2ncnc3sccc23)CC1`: 3.44 µM. The same measure for `O=C(c1cc(COc2cccc3cnccc23)on1)N1CCCC(CCCO)C1` (configuration not stated): 0.519 µM.

With `CC(C)(C)c1ccc(CN(Cc2ccccc2)C(c2ccccn2)c2nnnn2C(C)(C)C)cc1` (configuration not stated), the AC50 was 13.5 µM.

The values above are taken from PubChem BioAssay AID743417 (Broad Institute, 2014).
